Results on 2 compounds are retold here after patent publication US8772512B2, “Crystallisation process for 1-(β-D-glucopyranosyl)-4-methyl-3-[5-(4-fluorophenyl)-2-thienylmethyl] benzene” (Janssen Pharmaceutica NV, priority 2009, dated 2014).

Data set [1] in a line: Particle size distribution by laser diffraction (Malvern Mastersizer 2000, wet dispersion). The class given is physicochemical. The following applies: Fraunhofer optical model, hemihydrate; for particle size distribution D10: d10 cumulative undersize by volume, dispersed in 1% (w/v) polysorbate 20 in water; for particle size distribution D50: d50 cumulative undersize by volume; for particle size distribution D90: d90 cumulative undersize by volume. How it is done:
Particle size of original compound (I) and crystallised compound (I) according to the procedure of Example 1 have been determined with laser diffraction (LD). For this purpose, a Malvern Mastersizer 2000 laser diffractometer (Malvern, U.K.) has been used, which was equipped with a Hydro 2000S wet dispersion module. Prior to analysis, an amount of ca. 200 mg of the product was dispersed in 1% (w/v) polysorbate 20 in water by means of vigorous shaking for 30 seconds. A representative portion of this dispersion was than added to the reservoir of the wet dispersion module, which for this purpose was filled with water. The liquid medium was circulated via the measurement cell of the instrument, to allow measurement of the product specific scattering pattern. Based on the scattering intensities as measured under different angles relative to the incoming collimated laser beam, for compound (I) the particle size distribution (PSD) by volume was calculated based on the Fraunhofer optical model. For the PSD, the d10, d50 and d90 cumulative undersize were reported as the relevant statistical descriptors.

A short description of data set [2]: Bulk and tap density (25 g in 100-ml graduated cylinder; 500 taps). The class given is physicochemical. The following applies: for Bulk density: 25 g, volume in 100-ml graduated cylinder; for Bulk density / Tap density: hemihydrate; for Tap density: after 500 taps. The protocol: The bulk and tap densities of the crystallised 1-(β-D-glucopyranosyl)-4-methyl-3-[5-(4-fluorophenyl)-2-thienylmethyl] benzene hemihydrate were measured. The bulk density of 25 g of compound (I) was measured by recording its volume in a 100-ml graduated cylinder. Tap density volume was then measured after 500 taps.

SMILES strings stand for the structures.

With `Cc1ccc([C@@H]2O[C@H](CO)[C@@H](O)[C@H](O)[C@H]2O)cc1Cc1ccc(-c2ccc(F)cc2)s1` [crystallised compound (I), 1-(β-D-glucopyranosyl)-4-methyl-3-[5-(4-fluorophenyl)-2-thienylmethyl] benzene hemihydrate], in data set [1], the “particle size distribution D10” value is 20 μm, the “particle size distribution D50” value came to 49 μm and the “particle size distribution D90” value was 102 μm. In data set [2], this compound displayed a Bulk density of 0.35 g/mL and a Tap density of 0.54 g/mL. In data set [2] (crystallised according to Example 1 versus original compound (I)), the “bulk density higher than for original compound (I)” value is on record as 20%.
In the case of `Cc1ccc([C@@H]2O[C@H](CO)[C@@H](O)[C@H](O)[C@H]2O)cc1Cc1ccc(-c2ccc(F)cc2)s1` [original compound (I), 1-(β-D-glucopyranosyl)-4-methyl-3-[5-(4-fluorophenyl)-2-thienylmethyl] benzene hemihydrate], in data set [1], the “particle size distribution D10” value came out at 14 μm, the “particle size distribution D50” value is 43 μm and the “particle size distribution D90” value was determined as 116 μm. In data set [2], this compound came in with a Bulk density of 0.28 g/mL and a Tap density of 0.48 g/mL.
